Measured values taken from US8563594B2, “S1P3 receptor inhibitors for treating pain” (Allergan, Inc., priority 2007, dated 2013).

Target: S1P1 receptor (Homo sapiens (Human), UniProt P21453)
Assay: FLIPR assay (Ca2+ response), S1P1 receptor
Format: cell-based
Conditions: receptor activity at highest dose tested (10 μM) relative to 5 nM sphingosine-1-phosphate

Chain of S1P1 receptor (P21453 whole entry): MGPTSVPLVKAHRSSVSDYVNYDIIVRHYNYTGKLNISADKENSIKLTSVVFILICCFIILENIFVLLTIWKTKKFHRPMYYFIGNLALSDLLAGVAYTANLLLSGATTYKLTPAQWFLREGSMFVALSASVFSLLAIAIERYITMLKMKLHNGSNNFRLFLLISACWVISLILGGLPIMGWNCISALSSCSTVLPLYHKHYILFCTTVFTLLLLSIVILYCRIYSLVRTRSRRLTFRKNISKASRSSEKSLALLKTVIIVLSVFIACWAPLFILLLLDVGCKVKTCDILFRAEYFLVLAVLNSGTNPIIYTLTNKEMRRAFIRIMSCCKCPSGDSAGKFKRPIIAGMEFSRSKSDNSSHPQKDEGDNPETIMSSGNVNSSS

SMILES | S1P1 percent efficacy (in parenthesis) [%] | S1P1 percent efficacy (in parenthesis) (selective inhibitor table) [%]
Cc1ccc(-c2ccc(CNCCCP(=O)(O)O)nc2-c2ccccc2)cc1 [Compound 147] | 36 | –
CCc1ccc(-c2ccc(CNCCCP(=O)(O)O)nc2-c2ccccc2)cc1 [Compound 148] | 57 | –
CCCc1ccc(-c2ccc(CNCCCP(=O)(O)O)nc2-c2ccccc2)cc1 [Compound 154] | 69 | –
CCc1ccc(-c2ccc(CNCCCP(=O)(O)O)nc2-c2ccccc2)cc1 [drawing 165] | – | 57
